From US5583155A, “6-amino-1,2-benzopyrones useful for treatment of viral diseases” (Octamer, Inc., priority 1994, dated 1996)
In brackets after ≈: the same amount, converted by molar mass. Entries after “also recorded” stand apart in the source; their conditions may differ. Where two headings read alike, the source gives them in different places.

Tests used:
[1] = test system: HIV (activated by HSV IE-110) in U937 cells; assay: HIV growth activated by HSV IE110 in U937 cells (syncytium-forming assay)
Procedure: For the purpose of determining the ability of 6-ABP to inhibit HIV growth activation, the duplicate cells cultures were used. In experiments 1 and 2, U937 cells were transfected with HSV IE-110 gene and, CMV IE gene and infected HIV. […] In experiment 3, U937 cells transfected with HSV IE-110 and infected with HIV were treated with 3 mM of 6-ABP.
In all experiments shown in FIG. 3 and 4, the cells were exposed to 3 mM drug for 24 hrs.
(§1) DNA transfection was performed with DEAE dextran. Briefly, U937 cells (5×10^6) were exposed for 60 min. at 37° C. to a mixture of DEAE Dextran (1.05 ug/ml) and DNA in STBS buffer (25 mM Tris HCl, having pH 7.5, 137 mM NaCl, 0.5 MgCl2, 0.7 mM CaCl2 and 5 mM KCl and 0.6 mM Na2 HPO4) in 15 ml snap cap 6×35 mm polyethylene dishes from Costar, Cambridge, Mass., at 5×10^6 cells per well. Routinely, transfection mixtures contained 1.0 ug of target supercoiled plasmid and 0.1 ug DNA to equalize nucleic acid concentration effects. Transfected cells were harvested 40 to 44 hr post transfection in CAT harvest buffer (40 mM Tris, having pH 7.4 150 mM NaCl, 1 mM EDTA) and stored at -20° C. until assayed.
In one series of experiments, the effect of HSV IE110 and CMV IE2 gene expression on HIV replication using the syncytium assay formation on MT2 cells that defines HIV growth was examined. The ability of 6-ABP to inhibit HIV growth activation was studied in duplicate cultures. U937 cells were transfected with HSV IE110 CMV IE genes or mock transfected with pBR322 plasmid and duplicate cells were pretreated with HIV. Virus (HIV) growth was assayed at various times thereafter. HIV titers are expressed as syncytia forming units/ml.
Transfection was 24 hours before HIV infection. Sampling was done at days 3, 5, 6, and 8 post infection with HIV. 6-ABP treatment was 24 hours prior to transfection in order to allow intercellular 6-ABP concentration to equilibrate with external drug concentration. The timing chosen and drug dosage relate to drug penetration.

HSV-2 strain G = assay: microbe, parasite or virus in culture; format: cell-based, Herpes simplex virus type 2
HIV-LTR = assay: cells
Procedure: All chimeric CAT constructions were prepared in pCATB' containing the CAT structural gene without eukaryotic promoter sequence.
as §1
Routine assay conditions employed 0.2 uCi of [^14 C]-chloramphenicol substrate and an incubation time of 60 min. For quantitative estimates of CAT activity and fold activation, the appropriate sections were cut from the thin-layer chromatography scintillation fluid added and the radioactivity was counted in a scintillation counter. Quantitative comparisons were made by measuring the amounts of chloramphenicol-acetate product with enzyme concentrations and time. pSV CAT was used as a positive control, and the parent (pCATB') was used as a negative control. […]

ADPRT = conditions: FEBS Lett., 212:73 (1987); cited from earlier work
HIV in AA-2 cells = assay: HIV replication in AA-2 cells (p 24 ELISA); format: cell-based; conditions: 3 mM
Procedure: The effects of 3 mM 6-ABP on HIV replication in AA-2 cells using the same experimental set-up as for FIG. 7 was followed by the conventional analysis of p 24 formation by automated ELISA tests. The results are shown in FIG. 8, where as in FIG. 7, the influence of varying HIV concentrations infecting HIV dilution, from 1:100 to 1:1600 or p 24 input, as shown in graph, was monitored.

HSV-1 strain F = assay: microbe, parasite or virus in culture; format: cell-based, Herpes simplex virus type 1
RSV = assay: microbe, parasite or virus in culture; format: cell-based, Respiratory Syncytium virus (patient isolate)
[2] = test system: HIV in human lymphoblasts; assay: HIV in human lymphoblasts (reverse transcriptase assay); format: cell-based; conditions: 18 hours exposure, FIG. 11E
Procedure: In FIGS. 11A through 11E, normal lymphoblasts stimulated with PHA are infected with HIV and at the same time are submitted to various concentrations from 0-10 mM 6-ABP. After the short exposure of 18 hours, both HIV and 6-ABP are removed, FIGS. 11A, 11C, 11E and the 6-ABP in the same concentrations is readded up to 4 days to cultures shown in FIGS. 11B and 11D. At 4 days, proliferation index measured by ^3 H-thymidine incorporation is determined in FIGS. 11A and 11B. […] In FIGS. 11C and […], the viral synthesis or inhibition is measured by p 24 assay.
Human peripheral blood mononuclear cells from a noninfected, normal individual were stimulated for 2 to 3 days with phytohemagglutinin in tissue culture, washed, aliquoted and cultured overnight with 200 TCID or 50 TCID of HIV and were untreated or treated with 0.01, 0.1, 1.0 or 10.0 mM 6-ABP. An additional control was incubated with 10 mM 6-ABP without presence of HIV. After the overnight incubation, […]. The cells were placed in culture in medium containing IL-2, but in the absence of additional 6-ABP, and monitored at 6 days and 12 days for the production of HIV-p24 core antigen, or for measurements of particulate reverse transcriptase. […]
HIV p24 antigen was measured by ELISA, with a cutoff of 5 pgm/ml. […]

HIV in U937 cells = assay: HIV growth in U937 cells without activator (syncytium-forming assay); format: cell-based, HIV-1
Procedure: In order to assess a possible direct effect of the drug on the growth of HIV, experiments shown in FIG. 3 were reproduced, except that conditions of virus titration (by SFU) were refined, to detect relatively low virus titers.
Transfection was 24 hours before HIV infection.

Influenza virus = assay: microbe, parasite or virus in culture; format: cell-based, Influenza virus (patient isolate)
CMV = assay: microbe, parasite or virus in culture; format: cell-based, human cytomegalovirus (patient isolate)
Adenovirus = assay: microbe, parasite or virus in culture; format: cell-based, Adenovirus (patient isolate)
HIV in whole blood = assay: HIV inhibition in whole blood of HIV infected patients; format: cell-based; conditions: FIG. 10 results repeated in whole blood
AA-2 cells = assay: AA-2 cell count and viability; format: cell-based; conditions: 3 mM
Procedure: The effects of 6-ABP treatment of AA-2 cells was directly analyzed by cell count and viability tests including cloning efficiency and trypan blue uptake. The AA2 cell culture having initial cell count per well 0.5×10^5 was submitted to treatment with 3 mM of 6-ABP and compared to untreated (Control) cell culture. The cells were counted 4 days after the treatment with 6-ABP.

[3] = Aqueous solubility and solution stability; format: physicochemical
[4] = 1 mM 6-ABP, 24 hours before infection
[5] = 1, 5 and 10 mM, zero time vs 4 hours after infection

Nc1ccc2oc(=O)ccc2c1 [6-ABP, 6-amino-1,2-benzopyrone]
effect on activation by HSV IE110 ([1]; 1 mM): virtually abrogates activation by HSV IE110
HIV growth, U937 + HSV IE110 + 6-ABP ([1]; 1 mM, day 3): 32 SFU/ml
HIV growth, U937 + HSV IE110 + 6-ABP ([1]; 1 mM, day 5): 64 SFU/ml
HIV growth, U937 + HSV IE110 + 6-ABP ([1]; 1 mM, day 6): 100 SFU/ml
HIV growth, U937 + HSV IE110 + 6-ABP ([1]; 1 mM, day 8): 100 SFU/ml
effect on IE-110(HSV)-activated growth of HIV ([1]; 3 mM, FIG. 3): profoundly depresses IE-110(HSV)-activated growth of HIV
HIV growth, U937 + HSV IE-110, reduced to background levels ([1]; 3 mM, days 4 to 8, FIG. 3): 250-300 SFU per ml
Virus Titer +6-ABP (HSV-2) (HSV-2 strain G; [4]): 2 × 10^5 PFU per ml
effect of time of drug addition, HSV-2 (G) (HSV-2 strain G; [5]): essentially no differences found between the two modes of drug exposure
inhibition of HSV-2 strain G growth (HSV-2 strain G; 1-10 mM, 24 hours pretreatment, HEp-2 cells): 90-97%
inhibition at 1000 µM (HSV-2 strain G; Human alphaherpesvirus 2, 0 h, 1 mM at 0 hours (time of infection), read-out: inhibition of HSV-2 growth): 85%
inhibition at 1000 µM (HSV-2 strain G; Human alphaherpesvirus 2, 1 mM 6-ABP, 24 hours before infection, read-out: % Inhibition (HSV-2), Table 1): 87.5%
inhibition at 1000 µM (HSV-2 strain G; Human alphaherpesvirus 2, 1 mM, 24 hours pretreatment, read-out: inhibition of HSV-2 growth): 90%
inhibition at 1000 µM (HSV-2 strain G; Human alphaherpesvirus 2, 4 h, 1 mM at 4 hours post infection, read-out: inhibition of HSV-2 growth): 72%
inhibition at 200 µM (HSV-2 strain G; Human alphaherpesvirus 2, HEp-2, 0.2 mM, 24 hours pretreatment, HEp-2 cells, read-out: inhibition of HSV-2 strain G growth): ~45%
fold induction at 5000 µM (HIV-LTR; Human immunodeficiency virus 1, U-937, read-out: Fold Activation, HSV-IE-110 + 6-ABP, 5 mM 6-ABP, HSV-IE-110): 20
fold induction at 2000 µM (HIV-LTR; Human immunodeficiency virus 1, U-937, read-out: HIV-LTR-CAT activation by IE-110 after treatment, 2 mM 6-ABP, FIG. 5, 344-fold activation without drug): 0.4 to 0.9
binding to ADPRT (ADPRT): specifically binding to ADPRT at the same site that also binds catalytically effective DNA termini
HIV replication (HIV in AA-2 cells; beyond a virus dilution of 1:1400): profoundly inhibited HIV replication
p 24 generation (HIV in AA-2 cells; day 4, 1:1400 virus dilution): completely suppressed p 24 generation
effect of time of drug addition, HSV-1 (F) (HSV-1 strain F; [5]): essentially no differences found between the two modes of drug exposure
dependence of inhibitory effect on cell type (HSV-1 strain F; HSV growth in HEp-2, Vero and MRC-5 cells): not affected by cell type
inhibition at 1000 µM (HSV-1 strain F; Human alphaherpesvirus 1, 1 mM at 0 and 4 hours post infection, respectively, read-out: inhibition of HSV-1 growth): 60 to 65%
inhibition at 1000 µM (HSV-1 strain F; Human alphaherpesvirus 1, 1 mM, 24 hours before infection, read-out: inhibition of HSV-1 growth): 50%
inhibition at 10000 µM (HSV-1 strain F; Human alphaherpesvirus 1, 10 mM, 0 and 4 hours post infection, read-out: inhibition of HSV-1 growth): ~80%
inhibition at 2000 µM (HSV-1 strain F; Human alphaherpesvirus 1, HEp-2, 24 h, 2 mM, 24 hrs preexposure, HEp-2 cells, FIG. 1A, read-out: inhibition of HSV-1 strain F growth): > 50%
IC50 (HSV-1 strain F; Human alphaherpesvirus 1, 24 hours pretreatment, HEp-2 cells, read-out: concentration for 50% inhibition of growth, HSV-1 strain F): 2000 µM
Virus Titer +6-ABP (RSV) (RSV; [4]): 1 × 10^5 TCID50
effect on RSV growth (RSV; 6-ABP treatment): no effect
inhibition at 1000 µM (RSV; human respiratory syncytial virus, 1 mM 6-ABP, 24 hours before infection): 0%
virus inhibition, reverse transcriptase assay [2]: virus inhibition
effect on HIV growth without activator (HIV in U937 cells; 3 mM, FIGS. 3 and 4): completely inhibit any viral growth; also recorded: significant effect on HIV growth
effect on HIV growth in absence of activating HSV gene (HIV in U937 cells; Table 2 experiment): significant reduction in HIV growth
HIV growth, U937 + 6-ABP (HIV in U937 cells; day 3, no activator): 13 SFU/ml
HIV growth, U937 + 6-ABP (HIV in U937 cells; day 5, no activator): 10 SFU/ml
HIV growth, U937 + 6-ABP (HIV in U937 cells; day 6, no activator): 10 SFU/ml
HIV growth, U937 + 6-ABP (HIV in U937 cells; day 8, no activator): 10 SFU/ml
Virus Titer +6-ABP (Influenza) (Influenza virus; 1 mM 6-ABP, 24 hours before infection, highest dilution that caused 50% hemagglutination): 1 × 10^4
effect on Influenza virus growth (Influenza virus; 6-ABP treatment): no effect
inhibition at 1000 µM (Influenza virus; unidentified influenza virus, read-out: % Inhibition (Influenza)): 0%
Virus Titer +6-ABP (CMV) (CMV; [4]): 1 × 10^3 TCID50
effect on CMV growth (CMV; 6-ABP treatment): effectively inhibits CMV growth
inhibition at 1000 µM (CMV; Human betaherpesvirus 5, 1 mM 6-ABP, 24 hours before infection): 90%
Virus Titer +6-ABP (Adenovirus) (Adenovirus; [4]): 1 × 10^2 TCID50
effect on Adenovirus growth (Adenovirus; 6-ABP treatment): no effect
inhibition at 1000 µM (Adenovirus; unidentified adenovirus, 1 mM 6-ABP, 24 hours before infection): 0%
HIV inhibition in whole blood (HIV in whole blood): essentially reproduced in whole blood of HIV infected patients
cell proliferation (AA-2 cells; AA-2 cells): inhibitory effect on cell proliferation
Viability test / cellular toxicity (AA-2 cells; AA-2 cells, cloning efficiency and trypan blue uptake): no evidence of toxic effects; also recorded: does not coincide with any detectable cellular toxicity
Cell Count After 4 days (AA-2 cells; initial count per well 0.5 × 10^5, control 1.5 × 10^5): 0.7 × 10^5 (± 35%)
solution stability ([3]; 10-12 mM solution, pH 7.2-7.9, room temperature, in the dark): stable for months at room temperature
solubility ([3]; aqueous media, pH 7.2-7.9): 10 to 12 mM (≈ 1610 to 1930 µg/mL)
degraded ([3]; aqueous solution, 10-12 mM solution, months at room temperature, in the dark, read-out: decomposition of solution): < 0.1%
